# Experiments:
# [1] = test system: TNF-α, IL-6 and IL-1β mRNA in THP-1 cell-line-derived macrophage; test: RT-PCR of cytokine mRNA in LPS-stimulated THP-1 derived macrophages; format: cell-based, human; details: THP-1 derived macrophage; 3 h pre-treatment, LPS 100 ng/mL 3 h
# Excerpt: MK2 is recognized for inducing the production of pathological cytokines that fuel inflammation, including IL‐6, TNF‐α, and IL‐1β. These cytokines are the classic downstream target gene of MK2 and are identified as significant contributors to the risk of inflammation‐driven cancer,[34], [35], [36] such as colorectal cancer and hepatocellular carcinoma. Therefore, we assessed the transcriptional levels of these typical downstream cytokines in human monocytic THP‐1 cell‐line‐derived macrophage and the mouse RAW264.7 macrophage cell line under the influence of compound 11. […] Taken together, our findings corroborate that compound 11 effectively impedes the transcription and production of these key MK2 downstream pro‐inflammatory cytokines.
# FIGURE 4 Targeting cellular MK2 signaling with irreversible inhibition by compound 11. […] (C) The inhibitory effects of compound 11 on TNF‐α and IL‐6 production in LPS‐stimulated RAW264.7 macrophages for 24 h, measured by ELISA. […]
# Total RNA was extracted from cultured cells using the EZ‐press RNA Purification Kit (EZBioscience). Complementary DNA was synthesized using the ABScript III RT Master Mix for qPCR with gDNA remover (ABclonal Technology) and was quantified with primers listed in Table S5. The relative mRNA expression levels were quantified through qPCR using the SYBR green gene expression assay (ABclonal Technology).
# [2] = test system: IL-6 and TNF-α secretion by RAW264.7 cells; test: Cytokine production by ELISA in LPS-stimulated RAW264.7; format: cell-based, mouse; details: LPS-stimulated RAW264.7, 24 h
# Description: FIGURE 4 Targeting cellular MK2 signaling with irreversible inhibition by compound 11. (A and B) RT‐PCR analysis of IL‐1β, TNF‐α, and IL‐6 expression in Lipopolysaccharides (LPS)‐stimulated THP‐1 (A) and RAW264.7 (B) Cells, with pre‐treatment of compound 11 for 3 h followed by LPS (3 h) stimulation. (C) The inhibitory effects of compound 11 on TNF‐α and IL‐6 production in LPS‐stimulated RAW264.7 macrophages for 24 h, measured by ELISA. (D and E) Compound 11, alongside CC‐99677 and PF‐3644022, suppressed MK2 pathway activation, validated through western blot analysis post‐LPS stimulation. Cells were preincubated with the specified compounds for 1 h prior to LPS stimulation (100 ng/mL, 30 min). (F) Distinguishes the mode of action between compound 11 and CC‐99677. The complex structure of a small molecule and MK2 (3R2Y) with the same parent nucleus as compound 11 is shown in cyans, and the complex structure of a small molecule and MK2 (3FYJ) with the same parent nucleus as CC‐99677 is shown in orange. (G–I) The effect of indicated inhibitor on Hsp27 phosphorylation following inhibitor washout. […]
# Following collection and centrifugation of the cell culture media, supernatants were harvested and the levels of cytokine secretion were evaluated using specific ELISA kits (absin), following the manufacturer's protocol.
# [3] = test system: p-Hsp27; test: Cellular washout assay, p-Hsp27 by western blot; format: cell-based; details: 1 h pretreatment, then LPS
# Description: FIGURE 4 Targeting cellular MK2 signaling with irreversible inhibition by compound 11. (A and B) RT‐PCR analysis of IL‐1β, TNF‐α, and IL‐6 expression in Lipopolysaccharides (LPS)‐stimulated THP‐1 (A) and RAW264.7 (B) Cells, with pre‐treatment of compound 11 for 3 h followed by LPS (3 h) stimulation. (C) The inhibitory effects of compound 11 on TNF‐α and IL‐6 production in LPS‐stimulated RAW264.7 macrophages for 24 h, measured by ELISA. (D and E) Compound 11, alongside CC‐99677 and PF‐3644022, suppressed MK2 pathway activation, validated through western blot analysis post‐LPS stimulation. Cells were preincubated with the specified compounds for 1 h prior to LPS stimulation (100 ng/mL, 30 min). (F) Distinguishes the mode of action between compound 11 and CC‐99677. The complex structure of a small molecule and MK2 (3R2Y) with the same parent nucleus as compound 11 is shown in cyans, and the complex structure of a small molecule and MK2 (3FYJ) with the same parent nucleus as CC‐99677 is shown in orange. (G–I) The effect of indicated inhibitor on Hsp27 phosphorylation following inhibitor washout. Cells were pretreated with indicated compounds for 1 h and then washed to remove free compound and incubated for a further indicated time before activation with LPS. In (A–C), LPS (100 ng/mL) served as the stimulation control, while untreated cells were the baseline control. The data represent as mean ± SD from triplicates, with statistical analysis conducted via one‐way analysis of variance (ANOVA) (^## p < 0.01, ^### p < 0.001 vs. stimulation control; ^***p < 0.001 vs. baseline control).
# Furthermore, to validate the irreversible mechanism of action of compound 11 at the cellular level, we performed a cellular washout assay and assessed p‐Hsp27 levels. The established MK2 irreversible inhibitor CC‐99677 served as positive control, while the reversible ATP‐competitive inhibitor PF‐3644022 was used as negative control. […] In contrast, only 1 h after PF‐3644022 washout, p‐Hsp27 level was totally recovered (Figure 4I).
# After the treatment outlined in the figure legends, cells were lysed using 1× sodium dodecyl sulfate (SDS) solution. The lysates were then subjected to SDS‐polyacrylamide gel electrophoresis for separation, followed by transferring onto nitrocellulose membranes. The membranes were incubated with primary antibodies specific to phospho‐MK2, phospho‐Hsp27, MK2, Hsp27, GAPDH, and β‐actin (Cell Signaling Technology), followed by horseradish peroxidase‐conjugated anti‐mouse or anti‐rabbit IgG secondary antibodies. Protein bands were detected using an enhanced chemiluminescence detection reagent (Thermo Fisher Scientific).
# [4] = test system: MC38 tumor; test: In vivo antitumor evaluation in MC38 tumor model; design: species or system C57BL/6 mice
# Description: C57BL/6 mice, aged 6 weeks, were house and cared for in a controlled, specific pathogen‐free environment. MC38 tumor cells (3.5 × 10[5] in 100 µL) were administered to the mice via subcutaneous injection into the right flanks. Upon reaching a tumor volume between 50 and 100 mm^3, mice were randomized and assigned to either the vehicle control group or the specified treatment group (n = 7/group). The details regarding the administration of inhibitors and the measurement of tumors are delineated in the Supporting Information Methods.
# The mice then received intraperitoneal injections of either the vehicle control or compound 11 (at dosages of 25 or 50 mg/kg) twice daily for 10 days. Tumor size was gauged every three days with a microcaliper, and the tumor volume (TV) was estimated using the formula: TV = (length × width^2)/2. Additionally, the individual Tumor Growth Inhibition value (TGI) was assessed on the last day of the experiment for mice treated with the drug in comparison to those treated with the vehicle. The formula used was 100 × {1 - [(VTreated Final day -VTreated Day 0)/(VControl Final day -VControl Day 0)].
# [5] = Cell viability assay (CCK-8), THP-1; format: cell-based; details: THP-1 cells (monocyte), THP-1, human monocyte, read-out: IC50 (μM) mean ± SD, cytotoxicity
# Description: (§1) In cellular experiments, cells are seeded into either 6-well or 96-well plates and incubated overnight, proceeding with treatments as described in the figure legends or methods section. The cell inoculation numbers are outlined as follows: For assays measuring cell viability, between 3,000 to 5,000 cells are seeded per well in 96-well plates. For other cellular assays, the seeding density ranges from 5×10^5 to 1×10^6 cells per well in 6-well plates.
# (§2) Cells was plated into 96-well plates and incubated overnight prior to introduction of varying concentrations of compounds or control solvent. Following a 72-hour exposure period, cell viability was determined using a Cell Counting Kit-8 assay (Life-iLab, China). Dose-response curves were fitted using a four-parameter method facilitated by SoftMax Pro, which was subsequently used for the computation of IC50 values.
# [6] = Cell viability assay (CCK-8), CT26; format: cell-based; details: mouse, CT26 cells (colorectal carcinoma), CT26, murine colorectal carcinoma, read-out: IC50 (μM) mean ± SD, cytotoxicity
# Description: as §1, §2
smiles,measurement,setting,value
C=CC(=O)Nc1cc(-c2cc(-c3cc4c([nH]3)CCNC4=O)ccn2)ccc1OC(F)(F)F [compound 11],"effect on LPS-induced TNF-α, IL-6 and IL-1 mRNA expression",[1],significantly inhibited
same,effect on secretion level of IL-6 and TNF-α,[2],similarly reduced
same,p-Hsp27 level 3 h after inhibitor washout,[3]; 3 h,still significantly inhibited
same,time after inhibitor washout at which p-Hsp27 level recovered,[3],24 h
same,tumor growth inhibition rate (TGI),"[4]; 25 mg/kg bid x10, ip",47.5%
same,tumor growth inhibition rate (TGI),"[4]; 50 mg/kg bid x10, ip",64.0%
same,IC50 at 72 h,[5],34.7 ± 0.4 µM
same,IC50 at 72 h,[6],47.2 ± 2.4 µM

# Source: publication PMC11233931, “Remodeling tumor‐associated macrophage for anti‐cancer effects by rational design of irreversible inhibition of mitogen‐activated protein kinase‐activated protein kinase 2” (MedComm, 2024)
